We go through two compounds from PMC6270171, “In Vitro and In Vivo Antiangiogenic Activity of Caged Polyprenylated Xanthones Isolated from Garcinia hanburyi Hook. f” (Molecules, 2013).

For one data set, the system named is HeLa. As to the kind of experiment: MTT cytotoxicity assay, HeLa. Format: cell-based. As to conditions: Homo sapiens, MTT assay, 50% inhibition of cell growth, read-out: IC50 HeLa. Here is the method:
(§1) The xanthones 1–11 were tested for cytotoxicity against HeLa, A549, HCT-116, and HepG-2 human cancer cell lines and inhibition on the proliferation of the HUVEC cell line by using the MTT assay according to the described protocols.
(Tetrazolium assays rely on reduction of a dye to a coloured formazan, in cell work by metabolically active cells.)

The next data set concerns A549. Briefly: MTT cytotoxicity assay, A549. Format: cell-based. The following applies: Homo sapiens, A549; MTT assay; 50% inhibition of cell growth; read-out: IC50 A549. The protocol:
as §1

The next data set deals with HCT-116. Briefly: MTT cytotoxicity assay, HCT-116. As to conditions: Homo sapiens, HCT-116; MTT assay; 50% inhibition of cell growth; read-out: IC50 HCT-116. Format: cell-based. Here is the method: as §1
For a further data set, the system named is HepG-2. As to the kind of experiment: MTT cytotoxicity assay, HepG-2. Format: cell-based. As to conditions: Homo sapiens, HepG2; MTT assay; 50% inhibition of cell growth; read-out: IC50 HepG-2. Here is the method:
as §1

Another data set deals with HUVEC cell line. As to the kind of experiment: MTT assay, inhibition of proliferation of HUVEC cell line. The following applies: Homo sapiens, MTT assay, 50% inhibition of cell growth, read-out: IC50 HUVEC. Format: cell-based. The protocol: as §1
The subject of data set [1] is zebrafish embryos Tg(flk1:EGFP). Briefly: Antiangiogenic activity assay on blood vessel formation in zebrafish embryos. Format: in vivo, zebrafish (Danio rerio). The following applies: for Antiangiogenic activity to zebrafish embryos: concentrations varying from 1 μM to 16 μM; for Concentration with inhibitory effect on ISV formation (Figure 2): zebrafish embryos, 24 h, effects of 3, 7, 9 comparable to GA. The protocol: (§2) A transgenic zebrafish line, Tg(flk1:EGFP), with the endothelial- specific flk1 promoter directing enhanced green fluorescent protein (EGFP) expression in all endothelial cells of the vasculature was used. Adult zebrafish were maintained at 28.5 °C in a recirculating aquaculture system. Zebrafish embryos were generated by natural pair-wise mating, collected in the morning and raised at 28.5 °C in embryo water (0.2 g/L of Instant Ocean Salt in distilled water). At 6 h post-fertilization (hpf), the embryos were sorted for viability and developmental stage (shield stage). The embryos were firstly placed in 24-well plates in 1 mL of embryo water with eight embryos per well. Then, the xanthones, at various concentrations, were added to embryo water of each well from the shield stage (about 6 h). Because the fish embryo receives nourishment from an attached yolk ball for the duration of the experiment, no additional maintenance was required during the duration of the experiments. After treatment with the drugs for 24 h, the embryos were anesthetized with 0.05% 2-phenoxyethanol in embryo water. One to three embryos were placed on carry sheet glass and each embryo was examined for the presence of ectopic vessels in the subintestinal vessel plexus (SIV) as an indication of antiangiogenic effect. Photographs were taken under a fluorescence microscope.

Data set [2] concerns zebrafish embryos. Briefly: Death rates of treated zebrafish embryos. As to conditions: for Death Rate: eight embryos per well, control 0. Format: in vivo, zebrafish (Danio rerio). Here is the method: as §2
For data set [3], the system named is zebrafish embryos. Briefly: Heart rates of treated zebrafish embryos. Format: in vivo, zebrafish (Danio rerio).
The next data set concerns HUVEC. As to the kind of experiment: HUVEC wound migration assay. Format: cell-based, human. As to conditions: 0.5 μM, 24 h. Here is the method: The wound migration assay was performed as previously described. HUVECs were seeded at a plating density of 2 × 10^5 per well in 6-well plates which had been coated with 1% gelatin, cells grown in DMEM medium with 10% FBS overnight. After reaching 100% confluence, the cells were then gently scraped with a plastic tip to produce a wound area. After wounding cells were incubated with fresh DMEM medium with xanthones 1, 3, 7 and 9 at a concentration of 0.5 μM, the migration and cell movement throughout the wound area was examined after 24 h.

The term IC50 denotes the concentration needed to halve the response being measured. Take `CC(C)=CCC/C(C)=C/Cc1c(O)c(CC=C(C)C)c2c(c1O)C(=O)C1=C[C@@H]3C[C@H]4C(C)(C)O[C@@](C/C=C(/C)C=O)(C3=O)[C@@]14O2` [Xanthone 7, gambogenin]: the IC50 in the data set on HeLa is 3.26 µM; in the data set on A549 it was 4.88 µM; with HCT-116, 1.3 µM; with HepG-2, 6.51 µM; with HUVEC cell line, 1.04 µM. The “Antiangiogenic activity to zebrafish embryos” value in data set [1] was “displayed antiangiogenic activity”. In addition, the “Concentration with inhibitory effect on ISV formation (Figure 2)” value in [1] worked out at 32 µM. Moreover, the “Death Rate” value in the data set with zebrafish embryos [2] (8 μM) is on record as 0. Further, the “Heart Rate” value with zebrafish embryos [3] (Tg(flk1:EGFP), zebrafish, in vivo, 24 h, 8 μM) is on record as 6 per 10 s; in the data set on zebrafish embryos [3] (Tg(flk1:EGFP), zebrafish, in vivo, 24 h, 16 μM), 6 per 10 s; with zebrafish embryos [3] (Tg(flk1:EGFP), zebrafish, in vivo, 24 h, 32 μM) it was 5 per 10 s. Moreover, the “Inhibition of the migration of HUVEC” value with HUVEC is on record as “remarkable inhibition”.

Consider `CC(C)=CCC/C(C)=C/Cc1c(O)c(CC=C(C)C)c2c(c1O)C(=O)C1=C[C@@H]3C[C@H]4C(C)(C)O[C@@](C/C=C(\C)C(=O)O)(C3=O)[C@@]14O2` [Xanthone 9, isogambogenic acid], for which the IC50 was 6.35 µM with HeLa; 12.7 µM in the data set on A549; 11.7 µM in the data set on HCT-116; 6.35 µM in the data set with HepG-2; 1.73 µM in the data set on HUVEC cell line. Moreover, in data set [1], the “Antiangiogenic activity to zebrafish embryos” value is on record as “displayed antiangiogenic activity”. For the same compound, the “Concentration with inhibitory effect on ISV formation (Figure 2)” value in data set [1] is 4 µM. Moreover, the “Death Rate” value in the data set with zebrafish embryos [2] (2 μM) was 0; in the data set on zebrafish embryos [2] (4 μM), 0; in the data set with zebrafish embryos [2] (8 μM) it was 8/8. Besides, the “Concentration that caused the death of all zebrafish embryos” value in the data set on zebrafish embryos [2] (highest concentration tested) came out at 8 µM. The “Heart Rate” value is listed as 8 per 10 s in the data set with zebrafish embryos [3] (2 μM, zebrafish embryos, control 21 per 10 s); 5 per 10 s in the data set on zebrafish embryos [3] (4 μM, zebrafish embryos, control 21 per 10 s); 0 per 10 s in the data set with zebrafish embryos [3] (8 μM, zebrafish embryos, control 21 per 10 s). Further, the “Inhibition of the migration of HUVEC” value in the data set on HUVEC is listed as “remarkable inhibition”.
